These compounds were tested against T1, estrogen receptor alpha (ESR1) in MCF7 breast cancer cells (Homo sapiens, UniProt P03372) (assay: Breast Cancer Cell ERa High Content Fluorescence Imaging Assay (F10)). Conditions: 4 hours, plateau of the maximal effect, DMSO and 5 nM Fulvestrant define 0% and 100% changes in ESR1.
T1 construct: endogenous in cells; host or cells: MCF7 breast cancer cells
T1 sequence (P03372 1-595): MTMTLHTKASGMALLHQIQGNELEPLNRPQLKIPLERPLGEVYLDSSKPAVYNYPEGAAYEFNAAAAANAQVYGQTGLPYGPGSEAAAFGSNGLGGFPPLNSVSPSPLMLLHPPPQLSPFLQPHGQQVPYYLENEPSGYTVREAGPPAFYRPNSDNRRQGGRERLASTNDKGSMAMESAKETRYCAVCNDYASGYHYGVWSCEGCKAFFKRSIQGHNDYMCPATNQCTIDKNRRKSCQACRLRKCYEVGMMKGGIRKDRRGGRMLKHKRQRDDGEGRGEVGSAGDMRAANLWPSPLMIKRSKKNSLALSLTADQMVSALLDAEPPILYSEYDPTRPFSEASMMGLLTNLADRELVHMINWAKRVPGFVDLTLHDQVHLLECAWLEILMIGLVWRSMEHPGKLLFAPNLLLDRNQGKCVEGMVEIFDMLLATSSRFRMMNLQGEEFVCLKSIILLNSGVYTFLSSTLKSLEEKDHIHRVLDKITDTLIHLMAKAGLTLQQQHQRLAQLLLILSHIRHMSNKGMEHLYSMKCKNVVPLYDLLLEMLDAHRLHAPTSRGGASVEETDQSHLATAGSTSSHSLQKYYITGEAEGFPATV
Type: cell-based
Description: Breast Cancer Cell ERa High Content Fluorescence Imaging Assay (F10)
Cell plates were incubated at 37° C., for 4 hours. Fixation and permeabilization were carried out using a Biotek EL406 plate washer and dispenser as follows. […] Samples were incubated 30 minutes. Well contents was aspirated and 50 ul/well of Phosphate Buffered Saline (PBS) containing 0.5% w/v bovine serum albumen, 0.5% v/v Triton X-100 (Antibody Dilution Buffer) was added to each well. Samples were incubated for 30 minutes. Well contents were aspirated and washed 3 times with 100 ul/well of PBS. Immunofluorescence staining of estrogen receptor alpha (ESR1) was carried out using a Biotek EL406 plate washer and dispenser as follows. […] Samples were incubated for 2 hours at room temperature. Samples were washed 4 times with 100 ul/well of PBS. […] Samples were incubated for 2 hours at room temperature. Samples were washed 3 times with 100 ul/well of PBS using a Biotek EL406. Quantitative fluorescence imaging of ESR1 was carried out using a Cellomics Arrayscan V (Thermo). […] Channel 1 (DNA stain) was used to define the nuclear region (Circ). […] Data analysis was carried out using Genedata Screener Software, with DMSO and 5 nM Fulvestrant treated samples being used to define the 0% and 100% changes in ESR1. The “Robust Fit” method was used to define the inflexion point of curve (EC50) and the plateau of the maximal effect (Sinf).
For `CC1=C(c2ccc(Cl)c(F)c2)C(c2ccc(OCCN3CC[C@@H](CF)C3)cc2)Oc2ccc(O)cc21` (stereo partly drawn) [Example 2], the “ER-alpha MCF7 HCS Sinf (%)” value was −95%.
In the case of `COc1cc(C2=C(C)c3cc(O)ccc3OC2c2ccc(OCCN3CC(CF)C3)cc2)ccc1O` (stereo not drawn) [Example 46, 2-(4-(2-(3-(fluoromethyl)azetidin-1-yl)ethoxy)phenyl)-3-(4-hydroxy-3-methoxyphenyl)-4-methyl-2H-chromen-6-ol], the “ER-alpha MCF7 HCS Sinf (%)” value is reported as −98%.
In the case of `CC1=C(c2ccc(F)cc2)C(c2ccc(OCCN3CC(CF)C3)cc2)Oc2cc(C)c(O)cc21` (stereo not drawn) [Example 29, 2-{4-[2-(3-Fluoromethyl-azetidin-1-yl)-ethoxy]-phenyl}-3-(4-fluoro-phenyl)-4,7-dimethyl-2H-chromen-6-ol], the “ER-alpha MCF7 HCS Sinf (%)” value is reported as −90%.
In the case of `CC1=C(c2cccc(CO)c2)C(c2ccc(OCCN3CC(CF)C3)cc2)Oc2ccc(O)cc21` (stereo not drawn) [Example 17, 2-(4-(2-(3-(Fluoromethyl)azetidin-1-yl)ethoxy)phenyl)-3-(3-(hydroxymethyl)phenyl)-4-methyl-2H-chromen-6-ol], the “ER-alpha MCF7 HCS Sinf (%)” value is reported as −101%.
`CC1=C(c2cccc(Cl)c2)[C@@H](c2ccc(OCCN3CC(CF)C3)cc2)Oc2ccc(O)cc21` [Example 36, (R)-3-(3-chlorophenyl)-2-(4-(2-(3-(fluoromethyl)azetidin-1-yl)ethoxy)phenyl)-4-methyl-2H-chromen-6-ol] was tested, and the “ER-alpha MCF7 HCS Sinf (%)” value was −95%.
In the case of `CC1=C(c2cc(F)ccc2F)[C@H](c2ccc(OCCN3CC(CF)C3)cc2)Oc2ccc(O)cc21` [Example 43, (2S)-3-(2,5-difluorophenyl)-2-[4-[2-[3-(fluoromethyl)azetidin-1-yl]ethoxy]phenyl]-4-methyl-2H-chromen-6-ol], the “ER-alpha MCF7 HCS Sinf (%)” value is reported as −94%.
For `C#Cc1cc(O)cc(C2=C(C)c3cc(O)ccc3OC2c2ccc(OC[C@H](C)N3CC[C@@H](CF)C3)cc2)c1` (stereo partly drawn) [Example 3, 3-(3-Ethynyl-5-hydroxyphenyl)-2-(4-((S)-2-((R)-3-(fluoromethyl)pyrrolidin-1-yl)propoxy)phenyl)-4-methyl-2H-chromen-6-ol], the “ER-alpha MCF7 HCS Sinf (%)” value was −94%.
`CC1=C(c2ccc(F)cc2Cl)[C@@H](c2ccc(OCCN3CC(CF)C3)cc2)Oc2ccc(O)cc21` [Example 40, (2R)-3-(2-chloro-4-fluoro-phenyl)-2-[4-[2-[3-(fluoromethyl)azetidin-1-yl]ethoxy]phenyl]-4-methyl-2H-chromen-6-ol] was tested, and the “ER-alpha MCF7 HCS Sinf (%)” value was −98%.
For `CC1=C(c2cccc(F)c2Cl)C(c2ccc(OCCN3CC(CF)C3)cc2)Oc2ccc(O)cc21` (stereo not drawn) [Example 5], the “ER-alpha MCF7 HCS Sinf (%)” value was −98%.
For `CC(=O)Nc1cccc(C2=C(C)c3cc(O)ccc3OC2c2ccc(OCCN3CC(CF)C3)cc2)c1` (stereo not drawn) [Example 10, N-(3-(2-(4-(2-(3-(Fluoromethyl)azetidin-1-yl)ethoxy)phenyl)-6-hydroxy-4-methyl-2H-chromen-3-yl)phenyl)acetamide], the “ER-alpha MCF7 HCS Sinf (%)” value was −94%.
`CC1=C(c2cccc(O)c2)C(c2ccc(OCCN3CC(CF)C3)cc2)Oc2cc(Cl)c(O)cc21` (stereo not drawn) [Example 26, 7-Chloro-2-(4-(2-(3-(fluoromethyl)azetidin-1-yl)ethoxy)phenyl)-3-(3-hydroxyphenyl)-4-methyl-2H-chromen-6-ol] was tested, and the “ER-alpha MCF7 HCS Sinf (%)” value was −93%.
With `CC1=C(c2ccc(C(N)=O)cc2)C(c2ccc(OCCN3CC(CF)C3)cc2)Oc2ccc(O)cc21` (stereo not drawn) [Example 15, 4-(2-(4-(2-(3-(Fluoromethyl)azetidin-1-yl)ethoxy)phenyl)-6-hydroxy-4-methyl-2H-chromen-3-yl)benzamide] the “ER-alpha MCF7 HCS Sinf (%)” value was −99%.
`CC1=C(c2ccc(F)cc2Cl)[C@H](c2ccc(OCCN3CC(CF)C3)cc2)Oc2ccc(O)cc21` [Example 41, (2S)-3-(2-chloro-4-fluoro-phenyl)-2-[4-[2-[3-(fluoromethyl)azetidin-1-yl]ethoxy]phenyl]-4-methyl-2H-chromen-6-ol] was tested, and the “ER-alpha MCF7 HCS Sinf (%)” value was −100%.
For `CC1=C(c2cc(F)ccc2F)[C@@H](c2ccc(OCCN3CC(CF)C3)cc2)Oc2ccc(O)cc21` [Example 42, (2R)-3-(2,5-difluorophenyl)-2-[4-[2-[3-(fluoromethyl)azetidin-1-yl]ethoxy]phenyl]-4-methyl-2H-chromen-6-ol], the “ER-alpha MCF7 HCS Sinf (%)” value was −94%.
In the case of `CC1=C(c2cccc(C(N)=O)c2)C(c2ccc(OCCN3CC(CF)C3)cc2)Oc2ccc(O)cc21` (stereo not drawn) [Example 14, 3-(2-(4-(2-(3-(Fluoromethyl)azetidin-1-yl)ethoxy)phenyl)-6-hydroxy-4-methyl-2H-chromen-3-yl)benzamide], the “ER-alpha MCF7 HCS Sinf (%)” value is reported as −97%.
`CC1=C(c2ccc(F)c(C#N)c2)C(c2ccc(OCCN3CC(CF)C3)cc2)Oc2ccc(O)cc21` (stereo not drawn) [Example 33, 2-fluoro-5-[2-[4-[2-[3-(fluoromethyl)azetidin-1-yl]ethoxy]phenyl]-6-hydroxy-4-methyl-2H-chromen-3-yl]benzonitrile] was tested, and the “ER-alpha MCF7 HCS Sinf (%)” value was −96%.
`CC1=C(c2ccc(F)cc2C)C(c2ccc(OCCN3CC(CF)C3)cc2)Oc2ccc(O)cc21` (stereo not drawn) [Example 6, 3-(4-Fluoro-2-methylphenyl)-2-(4-(2-(3-(fluoromethyl)azetidin-1-yl)ethoxy)phenyl)-4-methyl-2H-chromen-6-ol] was tested, and the “ER-alpha MCF7 HCS Sinf (%)” value was −96%.
`CC1=C(c2ccc(Cl)c(F)c2)C(c2ccc(OC[C@H](C)N3CC[C@@H](CF)C3)cc2)Oc2ccc(O)cc21` (stereo partly drawn) [Example 1, 3-(4-Chloro-3-fluorophenyl)-2-(4-((S)-2-((R)-3-(fluoromethyl)pyrrolidin-1-yl)propoxy)phenyl)-4-methyl-2H-chromen-6-ol] was tested, and the “ER-alpha MCF7 HCS Sinf (%)” value was −91%.
`CC1=C(c2ccc(F)c(C#N)c2)[C@H](c2ccc(OCCN3CC(CF)C3)cc2)Oc2ccc(O)cc21` [Example 35, (S)-2-fluoro-5-(2-(4-(2-(3-(fluoromethyl)azetidin-1-yl)ethoxy)phenyl)-6-hydroxy-4-methyl-2H-chromen-3-yl)benzonitrile] was tested, and the “ER-alpha MCF7 HCS Sinf (%)” value was −97%.
`CC1=C(c2ccc(NS(C)(=O)=O)cc2)C(c2ccc(OCCN3CC(CF)C3)cc2)Oc2ccc(O)cc21` (stereo not drawn) [Example 13, N-(4-(2-(4-(2-(3-(Fluoromethyl)azetidin-1-yl)ethoxy)phenyl)-6-hydroxy-4-methyl-2H-chromen-3-yl)phenyl)methanesulfonamide] was tested, and the “ER-alpha MCF7 HCS Sinf (%)” value was −68%.
For `CC1=C(c2ccc(CO)cc2)C(c2ccc(OCCN3CC(CF)C3)cc2)Oc2ccc(O)cc21` (stereo not drawn) [Example 16, 2-(4-(2-(3-(Fluoromethyl)azetidin-1-yl)ethoxy)phenyl)-3-(4-(hydroxymethyl)phenyl)-4-methyl-2H-chromen-6-ol], the “ER-alpha MCF7 HCS Sinf (%)” value was −99%.
For `CC1=C(c2cc(F)cc(F)c2)[C@H](c2ccc(OCCN3CC(CF)C3)cc2)Oc2ccc(O)cc21` [Example 20, (R)- and (S)-3-(3,5-Difluorophenyl)-2-(4-(2-(3-(fluoromethyl)azetidin-1-yl)ethoxy)phenyl)-4-methyl-2H-chromen-6-ol], the “ER-alpha MCF7 HCS Sinf (%)” value was −103%.
With `CC1=C(c2ccc(F)cc2Cl)C(c2ccc(OCCN3CC(CF)C3)cc2)Oc2ccc(O)cc21` (stereo not drawn) [Example 32, 3-(2-chloro-4-fluoro-phenyl)-2-[4-[2-[3-(fluoromethyl)azetidin-1-yl]ethoxy]phenyl]-4-methyl-2H-chromen-6-ol] the “ER-alpha MCF7 HCS Sinf (%)” value was −99%.
With `CC1=C(c2ccc(C#N)c(Cl)c2)C(c2ccc(OCCN3CC(CF)C3)cc2)Oc2ccc(O)cc21` (stereo not drawn) [Example 18, 2-Chloro-4-(2-(4-(2-(3-(fluoromethyl)azetidin-1-yl)ethoxy)phenyl)-6-hydroxy-4-methyl-2H-chromen-3-yl)benzonitrile] the “ER-alpha MCF7 HCS Sinf (%)” value was −99%.
In the case of `CC1=C(c2cccc(Cl)c2)[C@H](c2ccc(OCCN3CC(CF)C3)cc2)Oc2ccc(O)cc21` [Example 37, (S)-3-(3-chlorophenyl)-2-(4-(2-(3-(fluoromethyl)azetidin-1-yl)ethoxy)phenyl)-4-methyl-2H-chromen-6-ol], the “ER-alpha MCF7 HCS Sinf (%)” value is reported as −98%.
`CC1=C(c2ccc(F)cc2)C(c2ccc(OCCN3CC(CF)C3)cc2)Oc2cc(C#N)c(O)cc21` (stereo not drawn) [Example 30, 2-{4-[2-(3-Fluoromethyl-azetidin-1-yl)-ethoxy]-phenyl}-3-(4-fluorophenyl)-6-hydroxy-4-methyl-2H-chromene-7-carbonitrile] was tested, and the “ER-alpha MCF7 HCS Sinf (%)” value was −92%.
In the case of `CC1=C(c2cccc(NS(C)(=O)=O)c2)C(c2ccc(OCCN3CC(CF)C3)cc2)Oc2ccc(O)cc21` (stereo not drawn) [Example 12, N-(3-(2-(4-(2-(3-(Fluoromethyl)azetidin-1-yl)ethoxy)phenyl)-6-hydroxy-4-methyl-2H-chromen-3-yl)phenyl)methanesulfonamide], the “ER-alpha MCF7 HCS Sinf (%)” value is reported as −93%.
